Laboratory results taken from ChEMBL document CHEMBL5674873, “Expression and inhibition of BRD4, EZH2 and TOP2A in neurofibromas and malignant peripheral nerve sheath tumors” (PLoS One, 2017).

How the values were obtained:
Format in all cases: cell-based
[1] = biological target: T1, Bromodomain-containing protein 4 (Homo sapiens, UniProt O60885); test: Inhibition of BRD4 in human ST88-14 cells assessed as reduction in cell viability at 4.9 to 2500 nM incubated for 72 hrs by SRB assay
[2] = biological target: T1, Bromodomain-containing protein 4; details: sts-26t
Description: Inhibition of BRD4 in human STS-26T cells assessed as reduction in cell viability at 4.9 to 2500 nM incubated for 72 hrs by SRB assay

[3] = biological target: T1, Bromodomain-containing protein 4; test: Inhibition of BRD4 in human HS53T cells assessed as reduction in cell viability at 4.9 to 2500 nM incubated for 72 hrs by SRB assay
[4] = biological target: DNA topoisomerase 2-alpha (Homo sapiens, UniProt P11388); test: Inhibition of TOP2A in human HS53T cells assessed as reduction in cell viability at 1 to 500 ng/ml incubated for 72 hrs by SRB assay
Sequence of DNA topoisomerase 2-alpha (P11388 whole entry): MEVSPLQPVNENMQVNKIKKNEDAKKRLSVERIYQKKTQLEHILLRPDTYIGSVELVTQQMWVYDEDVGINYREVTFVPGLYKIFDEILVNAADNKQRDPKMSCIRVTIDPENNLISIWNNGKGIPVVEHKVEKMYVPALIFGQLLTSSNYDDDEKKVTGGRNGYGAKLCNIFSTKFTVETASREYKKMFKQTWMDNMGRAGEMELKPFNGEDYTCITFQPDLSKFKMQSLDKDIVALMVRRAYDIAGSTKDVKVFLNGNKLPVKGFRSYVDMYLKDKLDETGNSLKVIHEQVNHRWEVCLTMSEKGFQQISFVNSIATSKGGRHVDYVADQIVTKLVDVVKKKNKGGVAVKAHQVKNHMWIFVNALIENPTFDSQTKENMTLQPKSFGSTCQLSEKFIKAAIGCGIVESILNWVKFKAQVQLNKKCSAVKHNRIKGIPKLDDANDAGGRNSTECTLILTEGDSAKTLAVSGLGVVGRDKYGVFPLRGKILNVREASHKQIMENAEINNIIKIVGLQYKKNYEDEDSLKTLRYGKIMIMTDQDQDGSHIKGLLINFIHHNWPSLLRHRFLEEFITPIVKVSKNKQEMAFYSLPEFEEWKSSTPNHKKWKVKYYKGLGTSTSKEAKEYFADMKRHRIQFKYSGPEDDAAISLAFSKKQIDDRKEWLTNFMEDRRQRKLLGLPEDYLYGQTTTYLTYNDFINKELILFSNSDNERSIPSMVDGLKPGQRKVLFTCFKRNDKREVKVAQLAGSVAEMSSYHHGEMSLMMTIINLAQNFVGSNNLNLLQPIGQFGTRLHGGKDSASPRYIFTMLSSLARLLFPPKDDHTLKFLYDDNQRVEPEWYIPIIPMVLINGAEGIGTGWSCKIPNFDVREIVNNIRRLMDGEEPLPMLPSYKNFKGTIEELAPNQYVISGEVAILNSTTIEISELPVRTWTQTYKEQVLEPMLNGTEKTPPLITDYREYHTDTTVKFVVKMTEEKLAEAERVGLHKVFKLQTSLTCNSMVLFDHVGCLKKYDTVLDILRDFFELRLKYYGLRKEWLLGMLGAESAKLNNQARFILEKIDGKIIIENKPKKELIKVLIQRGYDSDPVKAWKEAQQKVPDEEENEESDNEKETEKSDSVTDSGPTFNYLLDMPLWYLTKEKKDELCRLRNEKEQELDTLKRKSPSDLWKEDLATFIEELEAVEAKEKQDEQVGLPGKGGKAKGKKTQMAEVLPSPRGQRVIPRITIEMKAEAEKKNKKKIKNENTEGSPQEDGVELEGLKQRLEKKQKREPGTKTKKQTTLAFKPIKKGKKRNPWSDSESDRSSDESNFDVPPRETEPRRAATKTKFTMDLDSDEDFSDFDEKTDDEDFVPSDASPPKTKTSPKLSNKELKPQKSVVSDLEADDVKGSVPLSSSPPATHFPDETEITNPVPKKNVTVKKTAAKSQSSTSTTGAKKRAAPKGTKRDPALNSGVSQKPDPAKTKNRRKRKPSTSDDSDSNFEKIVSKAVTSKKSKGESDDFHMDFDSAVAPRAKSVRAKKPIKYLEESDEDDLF

Compound | IC50 [1] | IC50 [2] | IC50 [3] | IC50 [4]
Cc1sc2c(c1C)C(c1ccc(Cl)cc1)=N[C@@H](CC(=O)OC(C)(C)C)c1nnc(C)n1-2 | Not Active | Not Active | Not Active | –
COc1cccc2c1C(=O)c1c(O)c3c(c(O)c1C2=O)C[C@@](O)(C(=O)CO)C[C@@H]3O[C@H]1C[C@H](N)[C@H](O)[C@H](C)O1 [DOXORUBICIN] | – | – | – | Not Active
